Measured values as given in US12410124B2 (priority 2019, dated 2025).
Like-named read-outs stand apart in the source and are kept apart here.

Assays:
midbrain CD11b = assay: Midbrain CD11b protein expression in MPTP Parkinson's disease model mouse (western-blotting); format: in vivo; settings: midbrain, MPTP Parkinson's disease model mouse, western-blotting
Protocol: (§1) Neurotoxins can be used to establish PD animal models. Currently, 1-methyl-4-phenyl-1,2,3,6-tetrahydropyridine (MPTP) is the sole synthetic toxin which is recognized to induce PD symptoms in human and non-human primates and in mice. Using MPTP subacute modeling method, C57BL/6J male mice were intraperitoneally injected with MPTP 30 mg/kg, once a day for 5 consecutive days. The experiment animals were divided into blank control group, MPTP model group, and compound treatment group. For the […] compound treatment group, the compound was administrated by gavage for 21 consecutive days after the completion of modeling; for the MPTP model group, the normal saline was administrated by gavage for 21 consecutive days after the completion of modeling; and for the blank control group, the normal saline was first intraperitoneally injected for 5 days, and then administrated by gavage for 21 days.
(§2) Neuron-glial cell network homeostasis disorder is an important factor for the selective and progressive death of substantia nigra dopaminergic neurons in PD. In the neurotoxic effect of MPTP, the excessive activations of microglial cells and astrocytes produce a variety of inflammatory cytokines and reactive oxygen species (ROS). These inflammatory factors and ROS amplify their respective toxicities and mediate malignant feedback loop, causing a cascade inflammation response and aggravating the pathological process of PD. CD11b and GFAP are the marker proteins for activations of microglial cells and astrocytes, respectively. Therefore, the effect of the target compounds on the activations of the microglial cells and astrocytes in the substantia nigra, hippocampus, and midbrain areas of MPTP-induced PD mice can be investigated, to explore the mechanism of the anti-PD effect of the target compounds by inhibiting the neuroinflammation.
[…] The experiment included blank control group, MPTP model group, positive control group (caffeic acid phenethyl ester, CAPE), prototype control group (styryl sulfone compounds 3B, 3C, 3D), and 3G, whose structures are shown as above), and target compound group.

hippocampus CD11b = assay: Number of hippocampus microglial cells with CD11b positive expression in MPTP Parkinson's disease model mouse (immunohistochemistry); format: in vivo; settings: hippocampus, MPTP Parkinson's disease model mouse, immunohistochemistry
Protocol: as §1, §2
(§3) Half of experiment mice in each group were taken to separate the midbrain after perfusion and fixation. The tissue was trimmed, and the hippocampus area was taken to prepare paraffin sections. The CD11b immunohistochemical staining was performed for the statistics of the change in the number of microglial cells with CD11b positive expression. The experiment included blank control group, MPTP model group, positive control group (caffeic acid phenethyl ester, CAPE), prototype control group (styryl sulfone compounds 3B, 3C, 3D, and 3G, whose structures are shown as above), and target compound group.

[1] = biological target: acetylcholinesterase (AchE) (Homo sapiens, UniProt P22303); assay: biochemical
acetylcholinesterase (AchE), sequence (P22303 32-614, species assumed): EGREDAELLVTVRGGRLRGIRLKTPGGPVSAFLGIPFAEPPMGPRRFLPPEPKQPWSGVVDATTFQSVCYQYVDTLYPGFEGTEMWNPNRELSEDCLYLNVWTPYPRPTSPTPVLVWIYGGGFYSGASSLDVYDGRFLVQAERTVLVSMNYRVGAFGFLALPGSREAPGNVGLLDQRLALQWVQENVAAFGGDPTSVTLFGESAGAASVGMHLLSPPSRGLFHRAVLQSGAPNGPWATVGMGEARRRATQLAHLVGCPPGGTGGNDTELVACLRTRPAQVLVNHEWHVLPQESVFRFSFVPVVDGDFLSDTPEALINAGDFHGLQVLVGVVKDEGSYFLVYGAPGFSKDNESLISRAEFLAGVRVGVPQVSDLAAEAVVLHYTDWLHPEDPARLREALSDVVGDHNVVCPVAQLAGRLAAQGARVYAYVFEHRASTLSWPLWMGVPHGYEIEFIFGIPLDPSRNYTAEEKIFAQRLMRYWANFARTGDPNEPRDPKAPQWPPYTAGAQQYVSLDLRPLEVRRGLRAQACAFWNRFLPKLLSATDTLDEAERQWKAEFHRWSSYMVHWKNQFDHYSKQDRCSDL
Protocol: The modified Ellman method was used to determine the inhibitory activity on acetylcholinesterase. The principle lies in that acetylthiocholine iodide is decomposed under the action of acetylcholinesterase (AchE) to generate thiocholine. The thiocholine is quickly reacted with DTNB as the colour-developing agent to generate a yellow substance with light absorption at 405 nm. To a 96-well microplate, 50 μl of enzyme reaction buffer, 125 μl of DTNB (3 mM), 25 μl of test sample or positive control drug, and 25 μl of AchE (0.2 U/ml) were successively added. After incubation at room temperature for 5 min, 25 μl of ATCI (15 mM) was added. After incubation at room temperature for 8 min, the absorbance value was determined at 405 nm with a microplate reader. A blank control group without enzyme (25 μl PBS instead of the sample to be tested) was also established.

HO-1 = assay: Midbrain HO-1 expression in MPTP Parkinson's disease model mouse (western blot); format: in vivo; settings: midbrain, MPTP Parkinson's disease model mouse, western blot
Protocol: as §1
Oxidative stress is an important pathogenic mechanism of PD. Dopaminergic neurons are more sensitive to oxidative stress and are more susceptible to oxidative stress damage. Heme oxygenase (HO-1), a phase II enzyme, is also a well-known antioxidase. It plays an important protective role by catalyzing the conversion of free radicals into non-toxic products and increasing their water solubility to facilitate the elimination of free radicals, and maintain the redox balance in the body. It plays an important role in the process of protecting cells against oxidative stress damage. The activation of p38 protein phosphorylation has a negative regulatory effect on phase II enzymes. […] Using HO-1 as an indicator, the inhibitory effect of the target compounds on MPTP-induced oxidative stress damage in PD mice can be investigated.
HO-1 is expressed in astrocytes, microglial cells, and neurons. The total proteins of the midbrain tissue of mice in each experiment group were extracted, to determine the expression of phase II enzyme HO-1 in the midbrain of mice by western blot using GAPDH as the internal reference. The experiment included blank control group, MPTP model group, positive control group (caffeic acid phenethyl ester, CAPE), prototype control group (styryl sulfone compounds 3B, 3C, 3D, and 3G, whose structures are shown as above), and target compound group.

substantia nigra GFAP = assay: Number of substantia nigra astrocytes with GFAP positive expression in MPTP Parkinson's disease model mouse (immunohistochemistry); format: in vivo; settings: substantia nigra, MPTP Parkinson's disease model mouse, immunohistochemistry
Protocol: as §1, §2
as §3, with “substantia nigra” for “hippocampus”, “GFAP” for “CD11b”, “astrocytes” for “microglial cells”

hippocampus GFAP = assay: Number of hippocampus astrocytes with GFAP positive expression in MPTP Parkinson's disease model mouse (immunohistochemistry); format: in vivo; settings: hippocampus, MPTP Parkinson's disease model mouse, immunohistochemistry
Protocol: as §1, §2
as §3, with “GFAP” for “CD11b”, “astrocytes” for “microglial cells”

[2] = acetylcholinesterase, modified Ellman method, read-out: IC50

**Q.** `CC(Br)C(Br)COc1cc(/C=C/S(=O)(=O)CCc2ccc(OCC(F)(F)F)cc2)ccc1OC(=O)Nc1ccsc1` (stereo not shown) [Compound K1-3, (E)-2-(2,3-dibromobutoxy)-4-{2-[4-(2,2,2-trifluoroethoxy)phenylethylsulfonyl]ethenyl}phenyl-N-(thien-3-yl)carbamate] was tested. Which “Expression (CD11b/GAPDH)” value (midbrain CD11b) did it give?
**A.** 1.01 ± 0.08

**Q.** What about the “Positive cell number (microglial cells with CD11b positive expression)” value (hippocampus CD11b) of the same molecule?
**A.** 16 ± 1

**Q.** And the IC50 [1, 2]?
**A.** 22.3 ± 3.17 µM

**Q.** And the “Expression (HO-1/GAPDH)” value (HO-1)?
**A.** 0.83 ± 0.08

**Q.** What about the “Positive cell number (astrocytes with GFAP positive expression)” value (substantia nigra GFAP) of the same molecule?
**A.** 86 ± 5

**Q.** And the “Positive cell number (astrocytes with GFAP positive expression)” value (hippocampus GFAP)?
**A.** 65 ± 5

**Q.** Which “Expression (CD11b/GAPDH)” value (midbrain CD11b) does the source give for `CN(C)c1ccc(CC(=O)Oc2cc(/C=C/S(=O)(=O)C(Br)c3ccc(Cc4ccc(N(C)C)cc4)cc3)ccc2OC(=O)N2CCCC2C(F)(F)F)cc1` (stereo not shown) [Compound M1-5] here?
**A.** 0.83 ± 0.07

**Q.** And the “Positive cell number (microglial cells with CD11b positive expression)” value (hippocampus CD11b)?
**A.** 11 ± 1

**Q.** What about the IC50 [1, 2] of the same molecule?
**A.** 31.3 ± 4.63 µM

**Q.** What about the “Expression (HO-1/GAPDH)” value (HO-1) of the same molecule?
**A.** 0.96 ± 0.08

**Q.** What about the “Positive cell number (astrocytes with GFAP positive expression)” value (substantia nigra GFAP) of the same molecule?
**A.** 81 ± 4

**Q.** And the “Positive cell number (astrocytes with GFAP positive expression)” value (hippocampus GFAP)?
**A.** 67 ± 6

**Q.** `CC(C)(C)c1ccc(CS(=O)(=O)/C=C/c2ccc(O)c(O)c2)cc1` [Compound 3G, (E)-4-{2-[(4-t-butylphenyl)mesyl]ethenyl}benzene-1,2-diol, reference compound] was tested. Which “Expression (CD11b/GAPDH)” value (midbrain CD11b) did it give?
**A.** 0.67 ± 0.12

**Q.** And the “Positive cell number (microglial cells with CD11b positive expression)” value (hippocampus CD11b)?
**A.** 18 ± 3

**Q.** And the IC50 [1, 2]?
**A.** > 100 µM

**Q.** What about the “Expression (HO-1/GAPDH)” value (HO-1) of the same molecule?
**A.** 0.51 ± 0.07

**Q.** What about the “Positive cell number (astrocytes with GFAP positive expression)” value (substantia nigra GFAP) of the same molecule?
**A.** 130 ± 6

**Q.** And the “Positive cell number (astrocytes with GFAP positive expression)” value (hippocampus GFAP)?
**A.** 130 ± 6

**Q.** What does the source list for `O=C(/C=C/c1ccc(O)c(O)c1)OCCc1ccccc1` [Positive control group, caffeic acid phenethyl ester, reference compound]?
**A.** Expression (CD11b/GAPDH) (midbrain CD11b): 1.28 ± 0.10; Positive cell number (microglial cells with CD11b positive expression) (hippocampus CD11b): 24 ± 2; IC50 [1, 2]: > 100 µM; IC50 ([1]; read-out: IC50 values (acetylcholinesterase)): > 100 µM; Expression (HO-1/GAPDH) (HO-1): 0.52 ± 0.07; Positive cell number (astrocytes with GFAP positive expression) (substantia nigra GFAP): 132 ± 8; Positive cell number (astrocytes with GFAP positive expression) (hippocampus GFAP): 86 ± 2

**Q.** `CC(C)N(c1ccc(CCS(=O)(=O)/C=C/c2ccc(OC(=O)N(C)c3ccc(I)cc3)c(OCCOCc3ccccc3)c2)cc1)C(C)C` [Compound A1-3, (E)-2-(2-benzyloxyethoxy)-4-{2-[4-(N,N-diisopropylamino)phenylethylsulfonyl]ethenyl}phenyl-N-(4-iodophenyl)-N-methylcarbamate] was tested. Which “Expression (CD11b/GAPDH)” value (midbrain CD11b) did it give?
**A.** 1.12 ± 0.06

**Q.** And the “Positive cell number (microglial cells with CD11b positive expression)” value (hippocampus CD11b)?
**A.** 14 ± 2

**Q.** What about the IC50 [1] of the same molecule?
**A.** 25.2 ± 3.34 µM

**Q.** What about the “Expression (HO-1/GAPDH)” value (HO-1) of the same molecule?
**A.** 0.66 ± 0.05

**Q.** What about the “Positive cell number (astrocytes with GFAP positive expression)” value (substantia nigra GFAP) of the same molecule?
**A.** 105 ± 6

**Q.** And the “Positive cell number (astrocytes with GFAP positive expression)” value (hippocampus GFAP)?
**A.** 55 ± 3

**Q.** Which “Expression (CD11b/GAPDH)” value (midbrain CD11b) does the source give for `COc1ccc(CC(=O)Oc2ccc(/C(C)=C/S(=O)(=O)/C=C/c3ccc(OC(=O)N(C)C)c(O[Si](C)(C)CCl)c3)cc2)cc1` [Compound P1-7, 4-{(E)-1-[(E)-3-(chloromethyldimethylsiloxy)-4-(N,N-dimethylcarbamoyloxy)styrylsulfonyl]prop-1-en-2-yl}phenyl-2-(4-methoxyphenyl) acetate] here?
**A.** 0.39 ± 0.03

**Q.** And the “Positive cell number (microglial cells with CD11b positive expression)” value (hippocampus CD11b)?
**A.** 8 ± 2

**Q.** What about the IC50 [1] of the same molecule?
**A.** 21.4 ± 2.07 µM

**Q.** And the “Expression (HO-1/GAPDH)” value (HO-1)?
**A.** 0.71 ± 0.09

**Q.** And the “Positive cell number (astrocytes with GFAP positive expression)” value (substantia nigra GFAP)?
**A.** 73 ± 5

**Q.** What about the “Positive cell number (astrocytes with GFAP positive expression)” value (hippocampus GFAP) of the same molecule?
**A.** 49 ± 4

**Q.** For `COCCN(C)C(=O)Oc1cc(/C=C/S(=O)(=O)CCc2cccc(-c3ccc(C)o3)c2)ccc1OC(C)=O` [Compound J1-4, (E)-2-[N-(2-methoxyethyl)-N-methylcarbamoyloxy]-4-{2-[3-(5-methylfur-2-yl)phenylethylsulfonyl]ethenyl}phenyl acetate], which “Expression (CD11b/GAPDH)” value (midbrain CD11b) is on record?
**A.** 0.75 ± 0.06

**Q.** And the “Positive cell number (microglial cells with CD11b positive expression)” value (hippocampus CD11b)?
**A.** 10 ± 2

**Q.** What about the IC50 [1] of the same molecule?
**A.** 8.54 ± 1.65 µM

**Q.** And the “Expression (HO-1/GAPDH)” value (HO-1)?
**A.** 1.25 ± 0.06

**Q.** And the “Positive cell number (astrocytes with GFAP positive expression)” value (substantia nigra GFAP)?
**A.** 77 ± 4

**Q.** And the “Positive cell number (astrocytes with GFAP positive expression)” value (hippocampus GFAP)?
**A.** 79 ± 2

**Q.** Which “Expression (CD11b/GAPDH)” value (midbrain CD11b) does the source give for `COc1cc(/C=C/S(=O)(=O)Cc2cc(OC)c(OC)c(OC)c2)ccc1OC(=O)N(c1ccccc1)c1ccccc1` [Compound K3-3, (E)-2-methoxy-4-{2-[(3,4,5-trimethoxyphenyl)mesyl]ethenyl}-phenyl-N,N-diphenylcarbamate] here?
**A.** 1.15 ± 0.07

**Q.** And the “Positive cell number (microglial cells with CD11b positive expression)” value (hippocampus CD11b)?
**A.** 18 ± 1

**Q.** And the IC50 [1, 2]?
**A.** 38.3 ± 2.79 µM

**Q.** And the “Expression (HO-1/GAPDH)” value (HO-1)?
**A.** 0.69 ± 0.07

**Q.** And the “Positive cell number (astrocytes with GFAP positive expression)” value (substantia nigra GFAP)?
**A.** 96 ± 3

**Q.** What about the “Positive cell number (astrocytes with GFAP positive expression)” value (hippocampus GFAP) of the same molecule?
**A.** 69 ± 3
